# Experimental data: ChEMBL document CHEMBL3045260, “Synthesis, anti-microbial evaluation, and QSAR studies of 4-amino-3-hydroxy-naphthalene-1-sulfonic acid derivatives” (2012)
# Tests used:
# Format in all cases: functional
# [1] = system: Candida albicans; experiment: Fungicidal activity against Candida albicans MTCC 227
# [2] = system: Aspergillus niger; experiment: Ratio of MFC to MIC for Aspergillus niger MTCC 8189
# [3] = system: Aspergillus niger; experiment: Fungicidal activity against Aspergillus niger MTCC 8189
# [4] = system: Aspergillus niger; experiment: Antifungal activity against Aspergillus niger MTCC 8189 after 7 days by tube dilution method
# [5] = system: Escherichia coli; experiment: Bactericidal activity against Escherichia coli MTCC 1652
# [6] = system: Bacillus subtilis; experiment: Ratio of MBC to MIC for Bacillus subtilis MTCC 2063
# [7] = system: Escherichia coli; experiment: Ratio of MBC to MIC for Escherichia coli MTCC 1652
# [8] = system: Bacillus subtilis; experiment: Antibacterial activity against Bacillus subtilis MTCC 2063 after 24 hr by tube dilution method
# [9] = system: Bacillus subtilis; experiment: Bactericidal activity against Bacillus subtilis MTCC 2063
# [10] = system: Candida albicans; experiment: Antifungal activity against Candida albicans MTCC 227 after 48 hr by tube dilution method
# [11] = system: Staphylococcus aureus; experiment: Antibacterial activity against Staphylococcus aureus MTCC 2901 after 24 hr by tube dilution method
# [12] = system: Candida albicans; experiment: Ratio of MFC to MIC for Candida albicans MTCC 227
# [13] = system: Escherichia coli; experiment: Antibacterial activity against Escherichia coli MTCC 1652 after 24 hr by tube dilution method
# [14] = system: Staphylococcus aureus; experiment: Ratio of MBC to MIC for Staphylococcus aureus MTCC 2901
# [15] = system: Staphylococcus aureus; experiment: Bactericidal activity against Staphylococcus aureus MTCC 2901
SMILES,MFC [1],Ratio [2],MFC [3],-logMIC [4],MBC [5],Ratio [6],Ratio [7],-logMIC [8],MBC [9],-logMIC [10],-logMIC [11],Ratio [12],-logMIC [13],Ratio [14],MBC [15]
COc1cc(/C=N/c2c(O)cc(S(=O)(=O)O)c3ccccc23)ccc1O,> 160 µM,3,160 µM,1.48,> 160 µM,3,3,1.48,> 160 µM,1.48,1.17,3,1.48,3,160 µM
COc1ccc(/C=N/c2c(O)cc(S(=O)(=O)O)c3ccccc23)cc1,> 130 µM,3,130 µM,1.46,> 130 µM,3,3,1.46,> 130 µM,1.46,1.16,3,1.46,3,> 130 µM
CCOc1cc(/C=N/c2c(O)cc(S(=O)(=O)O)c3ccccc23)ccc1O,> 130 µM,3,30 µM,1.49,> 130 µM,3,3,1.49,> 130 µM,1.49,1.19,3,1.49,3,130 µM
OC(Cn1cncn1)(Cn1cncn1)c1ccc(F)cc1F [FLUCONAZOLE],–,–,40 µM,2.64,–,–,–,–,–,2.64,–,–,–,–,–
O=S(=O)(O)c1cc(O)c(/N=C/c2cccc(Cl)c2)c2ccccc12,> 140 µM,3,> 140 µM,1.46,> 140 µM,3,3,1.46,> 140 µM,1.46,1.16,3,1.46,3,140 µM
O=S(=O)(O)c1cc(O)c(/N=C/c2ccccc2Cl)c2ccccc12,> 140 µM,3,> 140 µM,1.46,> 140 µM,3,3,1.46,> 140 µM,1.46,1.16,3,1.46,3,> 140 µM
O=S(=O)(O)c1cc(O)c(/N=C/c2ccccc2)c2ccccc12,> 130 µM,3,> 130 µM,1.42,> 130 µM,3,3,1.42,> 130 µM,1.42,1.12,3,1.42,3,> 130 µM
O=CCCC/C=N/c1c(O)cc(S(=O)(=O)O)c2ccccc12,> 130 µM,3,30 µM,1.41,> 130 µM,3,3,1.41,> 130 µM,1.41,1.11,3,1.41,3,> 130 µM
O=S(=O)(O)c1cc(O)c(/N=C/c2cccc(O)c2)c2ccccc12,> 130 µM,3,130 µM,1.44,> 130 µM,3,3,1.44,> 130 µM,1.44,1.14,3,1.44,3,> 130 µM
COc1ccccc1/C=N/c1c(O)cc(S(=O)(=O)O)c2ccccc12,> 130 µM,3,> 130 µM,1.46,> 130 µM,3,3,1.46,> 130 µM,1.46,1.16,3,1.46,3,> 130 µM
O=Cc1ccc(/C=N/c2c(O)cc(S(=O)(=O)O)c3ccccc23)cc1,> 140 µM,3,140 µM,1.45,> 140 µM,3,3,1.45,> 140 µM,1.45,1.15,3,1.45,3,140 µM
COc1cccc(/C=N/c2c(O)cc(S(=O)(=O)O)c3ccccc23)c1,> 120 µM,3,> 120 µM,1.46,> 120 µM,3,3,1.46,> 120 µM,1.46,1.16,3,1.46,3,120 µM
O=S(=O)(O)c1cc(O)c(/N=C/c2ccc(Cl)cc2Cl)c2ccccc12,> 140 µM,3,> 140 µM,1.5,> 140 µM,3,3,1.5,> 140 µM,1.5,1.2,3,1.5,3,> 140 µM
CCn1cc(C(=O)O)c(=O)c2cc(F)c(N3CCNCC3)cc21 [NORFLOXACIN],–,–,–,–,19 µM,–,–,2.61,19 µM,–,2.61,–,2.61,–,19 µM
COc1cc(/C=N/c2c(O)cc(S(=O)(=O)O)c3ccccc23)cc(OC)c1OC,> 150 µM,3,> 150 µM,1.52,> 150 µM,3,3,1.52,> 150 µM,1.52,1.22,3,1.52,3,> 150 µM
O=S(=O)(O)c1cc(O)c(/N=C/C=C/c2ccccc2)c2ccccc12,> 140 µM,3,140 µM,1.45,> 140 µM,3,3,1.45,> 140 µM,1.45,1.15,3,1.45,3,> 140 µM
O=[N+]([O-])c1cccc(/C=N/c2c(O)cc(S(=O)(=O)O)c3ccccc23)c1,> 140 µM,3,> 140 µM,1.47,> 140 µM,3,3,1.47,> 140 µM,1.47,1.17,3,1.47,3,> 140 µM
COc1ccc(/C=N/c2c(O)cc(S(=O)(=O)O)c3ccccc23)cc1OC,> 150 µM,3,> 150 µM,1.49,> 150 µM,3,3,1.49,> 150 µM,1.49,1.19,3,1.49,3,> 150 µM
COc1cccc(/C=N/c2c(O)cc(S(=O)(=O)O)c3ccccc23)c1O,> 140 µM,3,> 140 µM,1.48,> 140 µM,3,3,1.48,> 140 µM,1.48,1.17,3,1.48,3,140 µM
O=S(=O)(O)c1cc(O)c(/N=C/c2ccc(Cl)cc2)c2ccccc12,> 140 µM,3,> 140 µM,1.16,> 140 µM,3,3,1.16,> 140 µM,1.16,1.16,3,1.16,3,> 140 µM
